{"source": "patent US7795286B2", "about": "(L'Oreal, priority 2004, dated 2010)", "tested_on": "keratinocytes", "assay": "Active photoprotection towards UVA-induced oxidative stress on keratinocytes (DCFH-DA fluorescent probe)", "assay_type": "cell-based", "settings": "for % of fluorescence relative to the control cells exposed to UVA, TEST 1 / % of fluorescence relative to the control cells exposed to UVA, TEST 2 / % of fluorescence relative to the control cells exposed to UVA, TEST 3 / % of fluorescence relative to the control cells exposed to UVA, Mean: 24 h pre-incubation; for % of fluorescence relative to the control cells exposed to UVA, TEST 1 / % of fluorescence relative to the control cells exposed to UVA, TEST 2 / % of fluorescence relative to the control cells exposed to UVA, TEST 3: DCF fluorescence after UVA; for % of fluorescence relative to the control cells exposed to UVA, Mean: mean of 3 tests", "method": "The technique for evaluating the photo-protection is performed according to a well-known method (J. of Photochemistry and Photobiology B: Biology 57 (2000) 102-112 TOBI et al: Glutathione modulates the level of free radicals produced in UVA irradiated cells). This technique uses a fluorescent probe as a marker of the global intracellular oxidative stress, 2′,7′-dichlorofluoresceine diacetate (DCFH-DA).\nThe use of DCFH-DA as an oxidative stress marker is based on its physicochemical properties. It is a non-ionic apolar molecule capable of diffusing across cell membranes. Once inside the cell, DCFH-DA is hydrolysed by intracellular esterases to a non-fluorescent compound: DCFH or 2,7-dichlorofluoresceine. In the presence of activated oxygen species, DCFH is rapidly oxidized to a highly fluorescent compound: DCF or 2,7-dichlorofluoresceine.\nAt confluence, the keratinocytes are incubated in the presence of the compound of Example 1 for 24 hours at 37° C., 5% CO2, in the culture medium, according to a dose effect (3 concentrations). • 2. Incorporation of DCFH-DA\nThe keratinocytes, pretreated with the test compound, are rinsed and then incubated in the presence of DCFH-DA in the dark. • 3. Exposure to UVA\nAfter this incubation, the DCFH-DA solution is removed and the cells are then exposed to UVA.\nComment: an unexposed control plate is kept in darkness at room temperature.\nThe fluorescence of the DCF is evaluated immediately after the exposure to UVA, by spectro-fluorimetry (excitation: 480 nm; emission: 530 nm). • 5. Results:\nThe results are expressed in Table 1 below, as a % of fluorescence relative to the control cells exposed to UVA.\nThe test described in Example 6 above was performed under the same conditions on R-2-oxothiazolidine-4-carboxylic acid (Compound A) and on an alkyl derivative thereof, described in patent U.S. Pat. No. 6,004,543 (Compound B).", "data": [{"smiles": "O=C1N[C@H](C(=O)O)CS1", "note": "[Compound A, R-2-oxothiazolidine-4-carboxylic acid, reference compound]", "values": [{"measurement": "Measurement of the intracellular Red/Ox balance: % reduction in the fluorescence of the DCFH probe", "setting": "at 5 mM", "value": 16, "unit": "% at 5 mM"}]}, {"smiles": "C[Si](C)(C)COC(=O)[C@@H]1CSC(=O)N1", "note": "[Example 1]", "values": [{"measurement": "% of fluorescence relative to the control cells exposed to UVA, TEST 1", "setting": "100 μM", "value": 95, "unit": "%"}, {"measurement": "% of fluorescence relative to the control cells exposed to UVA, TEST 2", "setting": "100 μM", "value": 81, "unit": "%"}, {"measurement": "% of fluorescence relative to the control cells exposed to UVA, TEST 3", "setting": "100 μM", "value": 75, "unit": "%"}, {"measurement": "% of fluorescence relative to the control cells exposed to UVA, Mean", "setting": "100 μM", "value": 84, "unit": "%"}, {"measurement": "% of fluorescence relative to the control cells exposed to UVA, TEST 1", "setting": "250 μM", "value": 82, "unit": "%"}, {"measurement": "% of fluorescence relative to the control cells exposed to UVA, TEST 2", "setting": "250 μM", "value": 71, "unit": "%"}, {"measurement": "% of fluorescence relative to the control cells exposed to UVA, TEST 3", "setting": "250 μM", "value": 70, "unit": "%"}, {"measurement": "% of fluorescence relative to the control cells exposed to UVA, Mean", "setting": "250 μM", "value": 74, "unit": "%"}, {"measurement": "% of fluorescence relative to the control cells exposed to UVA, TEST 1", "setting": "500 μM", "value": 75, "unit": "%"}, {"measurement": "% of fluorescence relative to the control cells exposed to UVA, TEST 2", "setting": "500 μM", "value": 70, "unit": "%"}, {"measurement": "% of fluorescence relative to the control cells exposed to UVA, TEST 3", "setting": "500 μM", "value": 58, "unit": "%"}, {"measurement": "% of fluorescence relative to the control cells exposed to UVA, Mean", "setting": "500 μM", "value": 68, "unit": "%"}, {"measurement": "Measurement of the intracellular Red/Ox balance: % reduction in the fluorescence of the DCFH probe", "setting": "at 500 μM, with dose effect", "value": "approximately 32%"}]}, {"smiles": "CCOC(=O)C1CSC(=O)N1", "note": "(stereo not drawn) [Compound B, reference compound]", "values": [{"measurement": "Measurement of the intracellular Red/Ox balance: % reduction in the fluorescence of the DCFH probe", "setting": "at 7 mM, with dose effect", "value": "37% at 7 mM with dose effect"}]}]}
